Results on one molecule are retold here after patent US20260356879A1, “CELASTROL DERIVATIVES” (Celloram Inc., priority 2022, published 2026).

Entries after “also recorded” stand apart in the source; their conditions may differ.

For experiment [1], the system named is TNF-α secretion. Kind of experiment: Secreted TNF-α in conditioned media of BMDC (ELISA), LPS+ATP or LPS+Nigericin. The experiment is classed as cell-based. The note with it: 63-500 nM, FIG. 2C. As for the experimental part:
(§1) FIG. 2A depicts western blot images showing the relative NLRP3 inflammasome activity of the compounds 22 (CLM-022) and 1 (CLM-001) by detecting the level of cellular ASC complex and the mature form of IL-1β (15 kDa) in a conditioned media of BMDCs treated with LPS (100 ng/ml) for 3 hours and then the compound at 50 nM, 100 nM, and 500 nM concentration for 30 min, followed by ATP or Nigericin. ASC monomer and β-Actin proteins were used as controls. FIG. 2B depict plots of results showing secreted IL-1β levels measured by ELISA using conditioned media of BMDC treated with the compound 22 or compound 1 at 63 nM, 125 nM, 250 nM, and 500 nM, under NLRP3 inflammasome activation induced either by LPS+ATP or LPS+Nigericin. FIG. 2C depict plots of results showing secreted TNF-α levels measured by ELISA using conditioned media of BMDC treated with the compound 22 or compound 1 at 63 nM, 125 nM, 250 nM, and 500 nM, under NLRP3 inflammasome activation induced either by LPS+ATP or LPS+Nigericin.
3. The secreted form of TNF-α, a NLRP3 inflammasome independent cytokine, induced by LPS+ATP or LPS+Nigericin were measured by ELISA assay using the conditioned media of BMDC treated with compound 1 (CLM-1) or compound 22 (CLM-022) at concentrations of 63, 125, 250, 500 nM under NLRP3 inflammasome activation induced either by LPS+ATP or LPS+Nigericin.
For orientation: An ELISA detects its analyte on a solid surface through an enzyme-linked reagent.

Experiment [2] has as its system NLRP3 inflammasome. The experiment in a line: NLRP3 inflammasome assay in BMDCs: ASC complex formation (western blot). The experiment is classed as cell-based. As for the experimental part:
FIG. 2A depicts western blot images showing the relative NLRP3 inflammasome activity of the compounds 22 (CLM-022) and 1 (CLM-001) by detecting the level of cellular ASC complex and the mature form of IL-1β (15 kDa) in a conditioned media of BMDCs treated with LPS (100 ng/ml) for 3 hours and then the compound at 50 nM, 100 nM, and 500 nM concentration for 30 min, followed by ATP or Nigericin. ASC monomer and β-Actin proteins were used as controls. FIG. 2B depict plots of results showing secreted IL-1β levels measured by ELISA using conditioned media of BMDC treated with the compound 22 or compound 1 at 63 nM, 125 nM, 250 nM, and 500 nM, under NLRP3 inflammasome activation induced either by LPS+ATP or LPS+Nigericin. FIG. 2C depict plots of results showing secreted TNF-α levels measured by ELISA using conditioned media of BMDC treated with the compound 22 or compound 1 at 63 nM, 125 nM, 250 nM, and 500 nM, under NLRP3 inflammasome activation induced either by LPS+ATP or LPS+Nigericin. […]
(§2) 1. […] After 30 minutes Nigericin (10 μM) or ATP (5 mM) was added (Signal 2) and the level of NLRP3-dependent inflammasome activity was determined by western blotting the treated cells with ASC complex (>48 kDa). […]

Experiment [3] relates to NLRP3 inflammasome. The experiment in a line: Secreted IL-1β in conditioned media of BMDC (ELISA), LPS+ATP or LPS+Nigericin. Format: cell-based. The note with it: 63-500 nM, FIG. 2B. How it is done: as §1, §2
For experiment [4], the system named is TNF-α secretion. The experiment in a line: TNF-α secretion in BMDMs, LPS + Nigericin. The experiment is classed as cell-based, mouse. The note with it: FIG. 5B. As for the experimental part:
(§3) This example illustrates a comparative study of CLM-022 and MCC950 in inhibiting NLRP3 inflammasome activity in mouse and human macrophages.
(§4) Bone marrow-derived macrophages (BMDMs) were treated with LPS (100 ng/ml) for 3 hours to induce the expression of inflammatory genes, including TNF-α, NLRP3, and pro-IL-1β. Subsequently, the BMDMs were treated with CLM-022 or MCC950 in a dose range of 0-10 μM for 30 minutes. Then, to fully activate NLRP3-dependent inflammasome activity and cytokine secretion, Nigericin (10 μM) was added to the BMDMs for an additional 30 minutes.

Another experiment relates to THP-1 cells. Kind of experiment: LDH release (NLRP3 inflammasome-induced cytotoxicity) in THP-1 cells. The experiment is classed as cell-based, human. The note with it: for inhibition of inflammasome-induced pyroptosis: human THP-1 macrophages, overall comparison with MCC950, FIG. 7A-7C. The source says: (§5) Pyroptosis, a pro-inflammatory form of cell death, is triggered by the activation of NLRP3 inflammasome components (GSDMD and Caspase-1), leading to the release of pro-inflammatory cytokines IL-1β and IL-18, as well as damage-associated molecular patterns (DAMPs). This process elicits a cascade of inflammatory responses, which can persist if dysregulated in affected tissues. Given the significant inhibitory potential of CLM-022 against NLRP3 inflammasome and IL-1β secretion, it was proposed that CLM-022 could effectively enhance cell viability by inhibiting pyroptosis in the context of inflammation and inflammasome activation. This example illustrates a comparative study of the abilities of CLM-022 and MCC950 to protect THP-1 cells from inflammasome-induced pyroptosis.
(§6) After LPS and Nigericin treatment, THP-1 cells were treated with either CLM-022 or MCC950 over a dosage range of 0 μM to 10 μM and cell viability was determined by impermeant live/dead staining dye and flow cytometric analysis. Additionally, NLRP3 inflammasome-induced cytotoxicity was investigated by measuring the level of LDH in the conditioned media after the CLM-022 and MCC950 treatments. Further, Western blotting of samples from the THP-1 cell viability assays was carried out to determine levels of the pyroptosis-mediating molecules, GSDMD and Caspase-1.
A general note: Release of lactate dehydrogenase indicates damage to the cell membrane.

The next experiment deals with GSDMD and Caspase-1. Kind of experiment: GSDMD and Caspase-1 cleavage in THP-1 cells (western blot). The experiment is classed as cell-based. The settings on record: Homo sapiens; THP-1, western blot; FIG. 7C; read-out: concentration inhibiting GSDMD and Caspase-1 cleavage.
Excerpt: as §5, §6
For orientation: Immunoblotting shows a protein as a band on a membrane.

For experiment [5], the system named is NLRP3 inflammasome. Kind of experiment: IL-1β secretion in BMDMs, LPS + Nigericin. Format: cell-based, mouse. The settings on record: FIG. 5A; for inhibition of IL-1β secretion: LPS + Nigericin. How it is done:
as §3, §4

Experiment [6] concerns TNF-α secretion. The experiment in a line: TNF-α secretion in THP-1 macrophages, LPS + Nigericin. The experiment is classed as cell-based. The settings on record: human THP-1 macrophages, FIG. 5D. As for the experimental part:
as §3
To confirm the inhibitory effect of CLM-022 in human macrophages, THP-1 cells, a human leukemia monocytic cell line, were differentiated into macrophages using phorbol 12-myristate-13-acetate (PMA, 100 ng/ml) treatment for one day. The THP-1 macrophages were then treated with LPS (100 ng/ml) for 3 hours to induce the expression of inflammatory genes. Subsequently, the THP-1 cells were treated with CLM-022 or MCC950 in a dose range of 0-10 μM for 30 minutes. Then, to fully activate NLRP3-dependent inflammasome activity, Nigericin (10 μM) was added to the THP-1 cells for an additional 60 min.

One may read the IC50 as the point on the concentration scale where inhibition reaches its midpoint. In the case of `CC1=C(O)C(=O)C=C2C1=CC=C1[C@@]2(C)CC[C@@]2(C)[C@@H]3C[C@](C)(N(C)C(=O)C(=O)N(C)C)CC[C@]3(C)CC[C@]12C` [Compound 22, N′-[(2R,4aS,6aR,6aS,14aS,14bR)-10-hydroxy-2,4a,6a,6a,9,14a-hexamethyl-11-oxo-1,3,4,5,6,13,14,14b-octahydropicen-2-yl]-N,N,N′-trimethyl-oxamide], the figures for the “suppression of TNF-α secretion” value in the experiment with TNF-α secretion [1] and with TNF-α secretion [4] were “no significant suppressive effect on TNF-α inflammatory cytokine secretion” and “neither CLM-022 nor MCC950 suppressed TNF-α secretion”, respectively. Besides, the ASC complex formation result in the experiment on NLRP3 inflammasome [2] (BMDCs, 50, 100, 500 nM, LPS then ATP or Nigericin, FIG. 2A) is “suppressed ASC complex formation more strongly than compound 1”. Further, the NLRP3 inflammasome activity result with NLRP3 inflammasome [2] (BMDCs, compared with compound 1) was “robust inhibitory function on NLRP3 inflammasome activity that was better than that observed for the parental molecule celastrol (compound 1)”. In addition, the “inhibition of IL-1β secretion” value in the experiment on NLRP3 inflammasome [3] is “more strongly inhibited IL-1β secretion induced by both LPS+ATP and LPS+Nigericin; also recorded: strongly inhibited IL-1β secretion via suppression of NLRP3 inflammasome”; with NLRP3 inflammasome [5], “outperforms the benchmark inflammasome inhibitor compound, MCC950, in inhibiting IL-1β secretion (but not TNF-α secretion)”; in the experiment on NLRP3 inflammasome [5] (listed as CLM-022), “significant inhibition of IL-1β secretion”. Also, the half-inhibitory concentration (IC50) with THP-1 cells (Homo sapiens, THP-1, LPS and Nigericin, 0 μM to 10 μM, FIG. 7B, read-out: IC50 for LDH release (normalized)) is 0.0124 µM; in the experiment on NLRP3 inflammasome [5] (Mus musculus, BMDM, LPS (100 ng/ml) + Nigericin (10 μM), 0-10 μM, read-out: IC50 for inhibition of IL-1β secretion (normalized)) it was 0.009 µM. Besides, in the experiment with THP-1 cells (THP-1, LPS and Nigericin, FIG. 7B), the “inhibition of LDH release” value is given as “significantly inhibited release of LDH”. The “higher potency relative to MCC950 in preventing pyroptosis” value in the experiment with THP-1 cells (from LDH release IC50 values, FIG. 7B) is reported as 10 fold. The “inhibition of inflammasome-induced pyroptosis” value in the experiment on THP-1 cells is listed as “greater capacity to inhibit inflammasome-induced pyroptosis in human THP-1 macrophages”; in the experiment with THP-1 cells (listed as CLM-022), “greater capacity than the benchmark molecule, MCC950, to inhibit inflammasome-induced pyroptosis in human THP-1 macrophages”. In addition, in the experiment with GSDMD and Caspase-1, the minimal effective concentration is not above 0.1 µM. For the same molecule, in the experiment on TNF-α secretion [6], the “inhibition of TNF-α secretion” value was “but not TNF-α”.
